{
  "source": "patent US20130316963A1",
  "about": "“INNATE DEFENCE REGULATORY PEPTIDE COMPOSITIONS FOR TREATMENT OF ARTHRITIS” (UNIVERSITY OF MANITOBA, priority 2010, published 2013)",
  "type_in_all_cases": "cell-based",
  "key": {"JNK": {"system": "JNK", "assay": "JNK activity assay (immunoprecipitation, c-Jun Ser73 phosphorylation immunoblot) in human FLS cells", "settings": "IL-1β 10 ng/ml 15 min; IDR-1002 100 μg/ml 45 min prior to or at time of stimulation; FIG. 8", "experimental": "(§1) Human FLS cells (5×10^4/ml) were seeded in a total volume of 20 ml per 75 cm^2 tissue culture flask in complete DMEM media containing 10% FBS for each condition. The cells were allowed to adhere overnight. Following day the media was changed to 10 ml complete DMEM containing 1% FBS. The cells were either un-stimulated or treated with IL-1β (10 ng/ml) in the presence or absence of IDR-1002 (100 μg/ml) for 15 min. IL-1β is known to induce JNK activation, and also p38 MAPK activity, after 15 min in FLS cells. Peptide IDR-1002 (100 μg/ml) was added either 45 min prior to, or at the time of stimulation with IL-1β. Total protein concentration was evaluated for each cell lysate employing micro BCA (Thermo Scientific). Kinase activities specific to JNK and to p38-MAPK were monitored employing the JNK activity assay kit and the p38 MAPK assay kit (Abcam Inc., Calif., USA) following the manufacturer's instructions. For JNK, 50 μg of total protein per cell lysate was used for immunoprecipitation employing a JNK-specific antibody. The eluate was treated with c-Jun substrate and ATP mixture. Subsequent phosporylation of c-Jun was evaluated by probing immunoblots with anti-phospho-c-Jun (Ser73) specific antibody. […] Subsequent phosporylation of ATF-2 was evaluated by probing immunoblots with a phospho-ATF-2 (Thr76) specific antibody. […]"}, "NF-κB": {"system": "NF-κB", "assay": "Secreted NF-κB luciferase reporter assay in rabbit synoviocyte HIG-82 cells", "settings": "IL-1β 10 ng/ml, IDR-1002 100 μg/ml, 6 hr, FIG. 3", "experimental": "Rabbit synoviocyte HIG-82 cells were transiently transfected with pNFκB-MetLuc2-Reporter Vector (Clontech laboratories Inc., Mountain View, Calif., USA) or the provided control vector as per the manufacturer's instructions. Various stimulants were added to the transfected cells in culture media containing 1% (v/v) FBS. The cells were stimulated with recombinant human IL-1β in the presence and absence of IDR-1002 for 6 hr. The peptide was added either 45 min prior to, or at the time of cytokine stimulation. The activation of NF-κB was monitored by employing the Ready-To-Glow Secreted NF-κB Luciferase Reporter Assay (Clontech) as per the manufacturer's instructions.\nTranscription factor NF-κB is central to the destructive effects associated with the escalation and sustenance of inflammatory responses pivotal in chronic inflammatory diseases including arthritis. Quantitative proteomics evaluation using iTRAQ® labelling pointed to the possibility that the peptide IDR-1002 altered IL-1β-induced NF-κB activation. Therefore, this study further evaluated the impact of IDR-1002 on IL-1β-induced direct activation of NF-κB in synovial fibroblasts. […] The activation of NF-κB was monitored by employing the Ready-To-Glow Secreted NF-κB Luciferase Reporter Assay (Clontech) as per the manufacturer's instructions."}, "human FLS cells [1]": {"system": "human FLS cells", "assay": "Transcriptional responses for IL-IRA and SIGIRR in human FLS cells (quantitative real-time PCR)", "settings": "FIG. 6; for IL-IRA transcription / SIGIRR transcription: in comparison to IL-1β alone, 2 hrs", "experimental": "Additionally, transcriptional responses for IL-IRA and SIGIRR in these cell cultures were evaluated by quantitative real-time PCR after 2 hrs."}, "[2]": {"system": "Human macrophage-like THP-1 cells", "assay": "TNF-α and IL-1β production in IL-32-stimulated THP-1 cells (ELISA)", "settings": "24 hr; for reduction of IL-32-induced TNF-α production: FIG. 7A; for reduction of IL-32-induced IL-1β production: FIG. 7B", "experimental": "Human macrophage-like THP-1 cells were stimulated for 24 hr with pro-inflammatory cytokine IL-32 (20 ng/ml) in the presence and absence of IDR-1002 (10 or 20 μM). The tissue culture supernatants were monitored for the production of pro-inflammatory cytokines TNF-α and IL-1β after 24 hr by ELISA as described previously."}, "human FLS cells [3]": {"system": "human FLS cells", "assay": "IL-IRA production in human FLS cells stimulated with IL-1β (ELISA)", "settings": "48 hr, FIG. 5", "experimental": "Tissue culture supernatants were harvested from human FLS cells after stimulation for 48 hr with IL-1β with and without IDR-1002. The supernatants were centrifuged at 1500×g for 7 min to obtain cell-free samples. The samples were aliquoted and stored at −20° C. until further use. Production of IL-IRA in the tissue culture supernatants was monitored using Quantikine® human […] ELISA following the manufacturer's instructions. […] Results shown are an average of at least three independent biological experiments performed with cells isolated from synovial tissues obtained from independent donors±standard error (*p<0.05, **p<0.01)."}, "p38 MAPK": {"system": "p38 MAPK", "assay": "p38 MAPK activity assay (immunoprecipitation, ATF-2 Thr76 phosphorylation immunoblot) in human FLS cells", "settings": "IL-1β 10 ng/ml 15 min; IDR-1002 100 μg/ml 45 min prior to or at time of stimulation; FIG. 9", "experimental": "as §1"}},
  "data": [
    {"sequence": "VQRWLIVWRIRK (IDR-1002 peptide)", "values": [
      {"measurement": "IL-1β-induced JNK activity and phosphorylation of c-Jun (Ser73)", "setting": "JNK", "value": "abrogated"},
      {"measurement": "suppression of IL-1β-induced activation of NF-κB", "setting": "NF-κB", "value": "greater than 70%"},
      {"measurement": "IL-IRA transcription", "setting": "human FLS cells [1]; IDR-1002 alone", "value": "significantly increased"},
      {"measurement": "SIGIRR transcription", "setting": "human FLS cells [1]; IDR-1002 alone", "value": "significantly increased"},
      {"measurement": "IL-IRA transcription", "setting": "human FLS cells [1]; IDR-1002 plus IL-1β", "value": "significantly increased"},
      {"measurement": "SIGIRR transcription", "setting": "human FLS cells [1]; IDR-1002 plus IL-1β", "value": "significantly increased"},
      {"measurement": "SIGIRR gene expression induced by IDR-1002 relative to cells stimulated with IL-1β", "setting": "human FLS cells [1]; human FLS", "value": "more than 9 fold"},
      {"measurement": "reduction of IL-32-induced TNF-α production", "setting": "[2]; 10 μM IDR-1002, IL-32 20 ng/ml", "value": 40, "unit": "%"},
      {"measurement": "reduction of IL-32-induced IL-1β production", "setting": "[2]; 10 μM IDR-1002, IL-32 20 ng/ml", "value": "about 40%"},
      {"measurement": "reduction of IL-32-induced TNF-α production", "setting": "[2]; 20 μM IDR-1002, IL-32 20 ng/ml", "value": "about 70%"},
      {"measurement": "reduction of IL-32-induced IL-1β production", "setting": "[2]; 20 μM IDR-1002, IL-32 20 ng/ml", "value": "about 65%"},
      {"measurement": "IL-IRA production with IL-1β in the presence of IDR-1002, relative to IL-1β in the presence of IDR-1", "setting": "human FLS cells [3]", "value": "more than twice as much IL-IRA"},
      {"measurement": "IL-IRA production with IL-1β in the presence of IDR-1002, relative to IL-1β alone", "setting": "human FLS cells [3]; IL-1β alone about 150 pg/ml", "value": "more than twice as much IL-IRA"},
      {"measurement": "IL-IRA production by IDR-1002 alone", "setting": "human FLS cells [3]; no IL-1β", "value": "did not stimulate production of IL-IRA"},
      {"measurement": "IL-1β-induced p38 MAPK activity and phosphorylation of ATF-2 (Thr76)", "setting": "p38 MAPK", "value": "abrogated"}
    ]}
  ]
}
